In US7557144B1, “Modulation of protein expression using carbocyclic aryl alkenoic acid derivatives” (The Johns Hopkins University, priority 2000, dated 2009):

Key:
Hsc70-CFTR complexes = molecular target: T1, Hsc70-CFTR complexes (Homo sapiens, UniProt P11142+P13569, DEL508-508); test: Immunoprecipitation of Hsc70-CFTR complexes from untreated IB3-1 cells with 4-PBA in lysis and wash buffers; type: binding; conditions: 1 mM 4-PBA added to RIPA lysis and wash buffers
T1 construct: endogenous in cells; host or cells: IB3-1 (RIPA lysate, immunoprecipitated with anti-Hsc70 serum)
T1 sequence (P13569 with tags, fused parts or gaps DEL508-508): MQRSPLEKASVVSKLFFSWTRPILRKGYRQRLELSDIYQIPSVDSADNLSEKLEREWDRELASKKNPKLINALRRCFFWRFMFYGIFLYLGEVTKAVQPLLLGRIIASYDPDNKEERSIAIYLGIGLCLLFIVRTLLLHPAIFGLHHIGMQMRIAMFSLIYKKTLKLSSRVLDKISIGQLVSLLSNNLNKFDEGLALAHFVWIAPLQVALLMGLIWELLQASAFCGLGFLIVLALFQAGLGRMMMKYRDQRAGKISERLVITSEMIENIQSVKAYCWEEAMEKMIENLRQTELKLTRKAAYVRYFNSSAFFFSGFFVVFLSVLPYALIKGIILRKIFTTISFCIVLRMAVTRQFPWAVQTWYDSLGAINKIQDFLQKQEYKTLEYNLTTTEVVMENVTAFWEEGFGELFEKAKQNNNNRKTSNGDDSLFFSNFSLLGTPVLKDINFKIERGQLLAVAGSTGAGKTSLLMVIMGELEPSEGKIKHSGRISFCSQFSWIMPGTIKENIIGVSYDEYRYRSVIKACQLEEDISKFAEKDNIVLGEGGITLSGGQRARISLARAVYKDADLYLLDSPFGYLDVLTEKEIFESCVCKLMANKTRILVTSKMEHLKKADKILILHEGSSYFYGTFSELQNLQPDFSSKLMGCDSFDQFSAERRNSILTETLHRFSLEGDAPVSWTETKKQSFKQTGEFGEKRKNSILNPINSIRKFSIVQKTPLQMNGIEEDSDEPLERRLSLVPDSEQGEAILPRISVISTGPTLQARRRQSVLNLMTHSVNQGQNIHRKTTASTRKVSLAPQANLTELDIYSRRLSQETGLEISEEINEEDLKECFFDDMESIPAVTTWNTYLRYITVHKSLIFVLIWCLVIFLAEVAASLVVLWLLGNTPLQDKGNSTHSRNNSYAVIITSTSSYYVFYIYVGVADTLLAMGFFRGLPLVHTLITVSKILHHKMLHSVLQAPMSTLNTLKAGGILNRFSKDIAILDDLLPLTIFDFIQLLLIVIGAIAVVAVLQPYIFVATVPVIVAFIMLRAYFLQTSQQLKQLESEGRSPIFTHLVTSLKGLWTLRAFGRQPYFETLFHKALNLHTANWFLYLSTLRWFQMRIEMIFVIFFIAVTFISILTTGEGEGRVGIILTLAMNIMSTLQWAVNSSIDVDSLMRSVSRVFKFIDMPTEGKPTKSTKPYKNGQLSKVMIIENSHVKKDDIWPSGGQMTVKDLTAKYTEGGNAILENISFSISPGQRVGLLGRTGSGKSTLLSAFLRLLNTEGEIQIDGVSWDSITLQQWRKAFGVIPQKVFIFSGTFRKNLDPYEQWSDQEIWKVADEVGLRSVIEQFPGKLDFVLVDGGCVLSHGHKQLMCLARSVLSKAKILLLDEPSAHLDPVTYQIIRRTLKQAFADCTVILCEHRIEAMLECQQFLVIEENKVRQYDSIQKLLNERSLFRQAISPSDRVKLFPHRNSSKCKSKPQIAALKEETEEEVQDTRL
T1 sequence (P11142 2-646 limits assumed, stated change not applied): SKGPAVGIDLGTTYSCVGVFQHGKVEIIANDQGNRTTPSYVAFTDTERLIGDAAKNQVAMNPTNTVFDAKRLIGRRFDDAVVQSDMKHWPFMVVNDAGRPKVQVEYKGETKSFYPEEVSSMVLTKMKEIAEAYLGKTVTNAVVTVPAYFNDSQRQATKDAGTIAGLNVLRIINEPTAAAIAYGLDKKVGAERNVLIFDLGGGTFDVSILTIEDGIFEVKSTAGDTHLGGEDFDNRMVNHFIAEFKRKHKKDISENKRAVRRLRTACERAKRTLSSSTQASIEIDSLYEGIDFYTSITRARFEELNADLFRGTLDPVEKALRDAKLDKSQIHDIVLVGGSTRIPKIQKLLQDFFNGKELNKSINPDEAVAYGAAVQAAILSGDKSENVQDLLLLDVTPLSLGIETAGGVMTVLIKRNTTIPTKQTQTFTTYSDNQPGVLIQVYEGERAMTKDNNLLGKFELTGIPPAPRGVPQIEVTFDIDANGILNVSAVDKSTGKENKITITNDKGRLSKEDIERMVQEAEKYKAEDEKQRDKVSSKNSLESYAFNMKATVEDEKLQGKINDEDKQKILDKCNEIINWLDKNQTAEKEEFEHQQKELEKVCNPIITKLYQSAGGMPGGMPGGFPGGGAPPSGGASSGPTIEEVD
Description: 5. Immunoprecipitation. Cultured cells were solubilized by incubation for 1 h at 4° C. in RIPA[50 mM Tris-Cl (pH8.0), 150 mM NaCl, 1% Triton X-100 (Bio-Rad or Fisher Scientific), 1% sodium deoxycholate (Sigma), and protease inhibitor cocktail (Sigma; used at 1:1,000 final dilution)]. Solubilized cells were then homogenized by passage 10 times through a 20-gauge needle and cleared by centrifugation at 15,000 g for 20 min at 4° C. Protein concentration was determined using the Bio-Rad DC reagents as above. Polyclonal Hsc70 antiserum was added to the cell lysates (2 μl/250 μg total protein, with equal amounts of protein at equal final concentrations for each condition within an experiment) and incubated at 4° C. over-night with gentle agitation. Immune complexes were captured with protein A-Sepharose 4B (Pharmacia Biotechnologies, Piscataway, N.J.) that had been preabsorbed with BSA for 45 min at 4° C. […]
The decrease in CFTR recovered by immunoprecipitation in proportion to the decrease in Hsc70 is consistent with 4-PBA not directly influencing the binding affinity of CFTR and Hsc70. This was further assessed by immunoprecipitating Hsc70-CFTR complexes from untreated IB3-1 cells either with or without 1 mM 4-PBA added to the RIPA lysis and wash buffers.

calnexin = test: Calnexin immunoblot of IB3-1 lysates; type: cell-based, human; conditions: IB3-1 cells, increasing concentrations of 4-PBA
Description: 3. Immunoblot analysis. Whole cell lysates were prepared by solubilization with 2% SDS at 95° C. Protein concentration in the lysates was determined using the Bio-Rad DC assay reagents with bovine plasma g-globulin as a standard (Bio-Rad Laboratories, Hercules, Calif.). Equal amounts of protein was resolved on 5, 7, 8, or 9% SDS-polyacrylamide gels. Proteins were transferred to nitrocellulose, and immunodetection was performed as previously described (25). Nonspecific binding was blocked by incubation of the nitrocellulose with 2% gelatin or 10% nonfat day milk. Primary antisera and secondary antibodies were applied in buffer containing 0.4% BSA overnight at 4° C. and for 1 h at room temperature, respectively. Detection of immunoreactivity was performed with the enhanced chemiluminescence reagent (ECL, Amer-sham) and fluorography. Recombinant bovine Hsc70 ([…]) was purchased from Stressgen Biotechnologies for use in constructing a standard curve of Hsc70 immunoreactivity. Immunoblots containing the bovine Hsc70 were probed with the Hsc70-specific polyclonal antiserum.
Whether 4-PBA would regulate expression of a number of other molecular chaperones in IB3-1 cells (FIG. 2) was assessed next. […] Hsp90 is required for correct folding and function of a number of cellular proteins (16). […]

CFTR = conditions: IB3-1 cells; previously shown (ref. 30); cited from earlier work

For `O=C(O)CCCc1ccccc1` [4-PBA, 4-phenylbutyric acid], the “recovery of Hsc70 and associated CFTR” value (Hsc70-CFTR complexes) is listed as “unaltered”, the expression of calnexin (calnexin) is listed as “did not affect” and the “4-PBA concentration leading to increased overall expression and appearance of mature CFTR” value (CFTR) is listed as over 0.1 mM.
